Assay [1] concerns the target Glycogen synthase kinase-3 beta (Homo sapiens, UniProt P49841). Put plainly: Inhibition of GSK3beta (unknown origin).
Assay [2] deals with T1, Glycogen synthase kinase-3 (Homo sapiens, UniProt P49840+P49841). Put plainly: Inhibition of GSK3 (unknown origin). Format: protein assay.
Assay [3] addresses Proto-oncogene tyrosine-protein kinase Src (Homo sapiens, UniProt P12931). Put plainly: Inhibition of SRC (unknown origin).
Assay [4] deals with Mitogen-activated protein kinase 1 (Homo sapiens, UniProt P28482). Put plainly: Inhibition of ERK2 (unknown origin).
Another assay addresses T2, Aurora kinase A (Homo sapiens, UniProt O14965).
T2 sequence (O14965 whole entry): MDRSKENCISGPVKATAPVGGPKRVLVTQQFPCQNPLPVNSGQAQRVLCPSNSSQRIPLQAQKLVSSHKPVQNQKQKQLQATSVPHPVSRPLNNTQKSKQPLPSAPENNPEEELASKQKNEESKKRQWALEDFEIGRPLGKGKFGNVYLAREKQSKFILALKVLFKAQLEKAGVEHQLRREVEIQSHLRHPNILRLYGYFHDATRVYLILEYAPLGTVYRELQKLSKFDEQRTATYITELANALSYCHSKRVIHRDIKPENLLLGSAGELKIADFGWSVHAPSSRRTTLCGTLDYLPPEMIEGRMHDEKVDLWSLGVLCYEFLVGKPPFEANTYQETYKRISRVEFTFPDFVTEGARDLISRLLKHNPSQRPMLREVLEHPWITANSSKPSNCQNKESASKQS
Put plainly: Inhibition of Aurora2 (unknown origin).

The target of assay [5] is T1, Glycogen synthase kinase-3. Put plainly: Inhibition of GSK3 (unknown origin) at 1 uM. Format: protein assay.

Chain of Proto-oncogene tyrosine-protein kinase Src (P12931 2-536 limits assumed): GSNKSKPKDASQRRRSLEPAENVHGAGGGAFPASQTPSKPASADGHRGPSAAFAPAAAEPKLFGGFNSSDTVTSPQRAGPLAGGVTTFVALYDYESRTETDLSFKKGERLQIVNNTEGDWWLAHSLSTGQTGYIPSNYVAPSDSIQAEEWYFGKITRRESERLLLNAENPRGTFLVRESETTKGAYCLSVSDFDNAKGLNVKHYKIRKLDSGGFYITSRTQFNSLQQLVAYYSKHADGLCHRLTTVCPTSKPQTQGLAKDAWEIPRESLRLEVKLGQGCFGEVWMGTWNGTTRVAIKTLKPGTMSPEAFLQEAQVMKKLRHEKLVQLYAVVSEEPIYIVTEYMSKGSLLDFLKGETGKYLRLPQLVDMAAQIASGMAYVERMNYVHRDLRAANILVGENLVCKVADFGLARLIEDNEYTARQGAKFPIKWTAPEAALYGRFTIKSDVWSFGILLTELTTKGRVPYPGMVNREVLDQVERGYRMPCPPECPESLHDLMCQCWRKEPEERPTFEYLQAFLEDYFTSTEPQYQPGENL
Chain of Mitogen-activated protein kinase 1 (P28482 whole entry): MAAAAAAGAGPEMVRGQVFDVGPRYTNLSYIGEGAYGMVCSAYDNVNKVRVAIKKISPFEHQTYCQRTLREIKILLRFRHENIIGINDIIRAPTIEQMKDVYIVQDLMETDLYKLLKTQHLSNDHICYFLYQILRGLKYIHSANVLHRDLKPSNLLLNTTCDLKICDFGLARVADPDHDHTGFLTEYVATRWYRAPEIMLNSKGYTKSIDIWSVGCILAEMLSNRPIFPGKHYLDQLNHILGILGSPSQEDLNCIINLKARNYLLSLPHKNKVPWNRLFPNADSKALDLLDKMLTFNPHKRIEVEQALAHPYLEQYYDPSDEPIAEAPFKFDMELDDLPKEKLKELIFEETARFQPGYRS
T1 sequence (P49840 whole entry, looked up): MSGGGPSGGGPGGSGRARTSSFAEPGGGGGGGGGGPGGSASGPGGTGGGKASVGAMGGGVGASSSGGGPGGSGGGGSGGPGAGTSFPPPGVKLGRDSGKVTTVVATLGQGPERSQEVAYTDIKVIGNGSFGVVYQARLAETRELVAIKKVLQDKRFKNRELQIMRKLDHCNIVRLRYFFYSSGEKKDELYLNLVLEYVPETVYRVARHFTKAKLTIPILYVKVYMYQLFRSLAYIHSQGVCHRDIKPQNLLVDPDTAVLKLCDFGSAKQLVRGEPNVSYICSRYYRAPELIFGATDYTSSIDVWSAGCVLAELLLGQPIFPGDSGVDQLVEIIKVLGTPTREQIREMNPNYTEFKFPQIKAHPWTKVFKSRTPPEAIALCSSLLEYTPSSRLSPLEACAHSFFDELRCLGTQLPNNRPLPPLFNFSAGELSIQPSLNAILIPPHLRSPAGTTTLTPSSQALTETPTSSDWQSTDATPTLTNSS
T1 sequence (P49841 whole entry, looked up): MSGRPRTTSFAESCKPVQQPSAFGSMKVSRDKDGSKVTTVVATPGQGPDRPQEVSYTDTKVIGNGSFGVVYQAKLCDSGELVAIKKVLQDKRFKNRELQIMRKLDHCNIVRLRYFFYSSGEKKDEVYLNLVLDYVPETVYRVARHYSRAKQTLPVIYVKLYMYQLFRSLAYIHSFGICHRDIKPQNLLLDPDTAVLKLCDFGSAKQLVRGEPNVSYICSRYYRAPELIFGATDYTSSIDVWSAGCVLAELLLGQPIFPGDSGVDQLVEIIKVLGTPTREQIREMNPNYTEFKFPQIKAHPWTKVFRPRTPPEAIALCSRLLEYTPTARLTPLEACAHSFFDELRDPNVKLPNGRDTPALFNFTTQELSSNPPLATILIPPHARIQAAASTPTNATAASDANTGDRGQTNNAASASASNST
Chain of Glycogen synthase kinase-3 beta (P49841 whole entry): as the sequence (P49841 whole entry, looked up) above

In the case of `Cc1ccc(-c2c[nH]c(C3COCCN3Cc3c[nH]c4ccccc34)n2)cc1` (stereo not given), the IC50 in assay [1] is 0.12 µM.

The compound `CCN(Cc1cn2cccc(C)c2n1)Cc1nc2ccccc2c(=O)[nH]1` displayed an IC50 in assay [2] of less than 10 µM.

For the compound `Cc1cccn2cc(CN(Cc3nc4ccccc4c(=O)[nH]3)C(C)C)nc12`, the inhibitory constant (Ki) in assay [3] was less than 0.1 µM; in assay [4], 1000 µM; at Aurora kinase A, less than 100 µM; in assay [2], less than 100 µM.

Turning to `Cc1nc[nH]c1[C@H]1c2nc[nH]c2CCN1Cc1nc2ccccc2[nH]1`, the Ki in assay [3] is less than 0.1 µM; in assay [4], 1000 µM; at Aurora kinase A, less than 100 µM; in assay [2], less than 100 µM.

`O=[N+]([O-])c1ccc2c(c1)[n+]([O-])c1c3ccccc3[nH]c1[n+]2[O-]` had a Ki in assay [4] of less than 1 µM. The compound also showed a half-inhibitory concentration (IC50) on Aurora kinase A of less than 5 µM.

Regarding `CCN(CC)CCCNc1nc2ccccc2c2[nH]c3ccc(OC)cc3c12`, the IC50 in assay [2] came out at 1 µM.

As for `C[n+]1c2ccccc2[n+]2[nH]c3ccccc3n12`, in assay [2], the half-maximal inhibitory concentration (IC50) was found to be 1 µM.

`O=C(N=c1[nH]c2ccccc2[nH]1)NC[C@H]1CCC[C@@H](CNC(=O)N=c2[nH]c3ccccc3[nH]2)C1` gave a half-maximal inhibitory concentration (IC50) in assay [2] of 1 µM.

The compound `CCSc1nc2c([nH]1)[nH]c1ccccc12` had an inhibition in assay [5] of 63%.

As for `Cc1nc[nH]c1[C@@H]1c2nc[nH]c2CCN1Cc1nc2ccccc2[nH]1`, the Ki in assay [3] was less than 0.1 µM; in assay [4] it was 1000 µM; on Aurora kinase A it was less than 100 µM; in assay [2] it was less than 100 µM.

Usually IC50 stands for the concentration that inhibits the measured activity by half. The term Ki denotes the dissociation constant of the complex between target and ligand, obtained from inhibition or displacement. Low readings indicate tighter binding, high ones weaker binding. Broadly, the inhibition is the relative decrease from the control value, in per cent.

Source of the values: ChEMBL document CHEMBL3046328, “Ligand-based pharmacophore detection, screening of potential pharmacophore and docking studies, to get effective glycogen synthase kinase inhibitors” (Med Chem Res, 2013).
